Measured values: US9561201B2, “Therapeutic compounds” (Fibrotech Therapeutics Pty Ltd, priority 2006, dated 2017)

Experiments:
[1] = system: Neonatal rat cardiac fibroblasts (NCFs); experiment: NCF TGF-β collagen synthesis, 3H-proline incorporation (Example 6); assay type: cell-based
Method: Neonatal SD rat cardiac myocytes (NCMs) and fibroblasts (NCFs) were isolated from one-day-old pups with enzymatic digestion as described in detail previously. NCFs were seeded and maintained in high-glucose (25 mmol/L) Dulbecco's modified Eagle's medium (DMEM) (Invitrogen Mount Waverley, Vic, Australia) in the presence of 1% antibiotic/antimycotic (AB/AM) and 10% fetal bovine serum (FBS) (JRH biosciences, Kansas, USA). NCFs were used at passage 2 [31]. Purified NCMs were seeded (1000 cells/mm^2) in 6-well plates and then maintained in serum-free DMEM (Invitrogen, NY, USA) supplemented with insulin and transferrin as described previously (4). Bromodeoxyuridine was included for the first 3 days. 50 mmol/L KCl was added to the medium to prevent spontaneous contraction characteristic of the plated NCMs.
NCFs collagen synthesis assays were performed as described previously. Briefly, NCFs plated at a density of 50,000 cells/well in 12-well plate and incubated overnight. NCFs were then serum starved for 24 hours in high-glucose DMEM. […]
For collagen synthesis, 1 μCi of [^3H]-Proline was added to each well and incubated for further 48 hours before harvest. Cells were harvested by precipitation with 10% TCA on ice for 30 min, before solubilisation with 0.75 mL of 1 mol/L NaOH overnight at 4° C. The samples were then neutralized with 1 mol/L HCl and ^3H level were counted with 10 ml scintillation fluid on a beta-counter to determine [^3H]-proline incorporation.

[2] = system: mesangial cell line (1097); experiment: TGF-β induced 3H-proline incorporation in cultured rat mesangial cells (Example 2); assay type: cell-based, Sprague-Dawley rats; details: renal mesangial cells, from 30 to 100 μM
Method: The anti-fibrotic effects of 3-methoxy-4-propargyloxybenzaldehyde (FT011) in a renal cell line were tested by measuring proline incorporation after transforming growth factor-β stimulation.
A well-characterized cloned mesangial cell line (1097) isolated from Sprague-Dawley rats was used between passages 30 and 40. Cells were cultured in Dulbecco's Modified Eagle's (DME) medium (Invitrogen, Grand Island, N.Y.) with heat-inactivated fetal bovine serum (FBS), 100 u/mL penicillin and 100 ug/mL streptomycin in a humidified 5% CO2 atmosphere at 37° C.
To compare the effects of tranilast and FT011 on collagen production in vitro, incorporation of tritiated proline was used. Mesangial cells were plated at low density into 24-well culture plates in DME/5% FBS and allowed to adhere overnight. The subconfluent cells were starved overnight in DME/0.5% FBS and […] L-ascorbic acid (Sigma-Aldrich). Tranilast or FT011 was then added to the wells, followed 4 hours later by L-[2,3,4,5-^3H]-proline, 0.5 μCi/well (Amersham) and TGF-β1, 5 ng/ml (R & D systems). Mesangial cells were harvested 48 hours post-stimulation, washed three times with ice cold PBS, and incubated with 10% trichloroacetic acid (TCA) for 30 minutes on ice, followed by a wash in ice cold 10% TCA. Cells were then solubilised in […] 1M NaOH. […]

[3] = system: neonatal SD rat cardiac fibroblasts; experiment: Angiotensin II-stimulated fibrosis (proline incorporation) in neonatal cardiac fibroblasts (Example 4); assay type: cell-based
Method: Matrix synthesis may be stimulated by both angiotensin II or transforming growth factor beta (TGF-β).
Neonatal SD rat cardiac fibroblasts (NCFs) were isolated from one-day-old pups with enzymatic digestion. NCFs were purified by percoll gradient and seeded with DMEM in the present of 1% antibiotic/antimycotic (AB/AM) and 10% fatal bovine serum (FBS). NCFs were then subcultured when they are about 80% confluence. The second passage of NCFs was used for the assays.
NCFs were seeded at 25,000 cells/well in 12-well plates and incubated at 37° C. and 5% CO2 overnight in DMEM with 1% AB/AM and 10% FBS. Cells were then washed with DMEM and then the media replaced with DMEM/F12 with 1% AB/AM, 0.5% Bovine Serum Albumin (BSA) and Vitamin C, before being incubated at 37° C. and 5% CO2 for 24 hours.
The effect of FT011 on TGF-β- or angiotensin II-stimulated fibrosis in the neonatal SD rat cardiac fibroblasts was investigated.

rat mesangial cell line [4] = experiment: TGF-β stimulated 3H-proline incorporation in mesangial cells (Example 5); assay type: cell-based; details: for Mesangial Cell Assay TGF-β % reduction of TGF-β stimulation_proline inc.: 5 ng/mL TGF-β1, 44 h
rat mesangial cell line [5] = experiment: Effect on mesangial cell appearance (visual monitoring during proline assay); assay type: cell-based; details: @ 100 μM

For C#CCOc1ccc(/C=C/C(=O)Nc2ccccc2C(=O)O)cc1OC [Analogue 11], the “NCF TGF-β Collagen Synthesis” value ([1]; @ 30 μM) was 32% @ 30 μM, the “NCF TGF-β Collagen Synthesis” value ([1]; @ 100 μM) was 87% @ 100 μM and the “proline incorporation after TGF-β stimulation” value [2] was “significantly reduce”. For the same molecule, the “angiotensin II-stimulated fibrosis (proline incorporation)” value [3] was “inhibited”, the “Mesangial Cell Assay TGF-β % reduction of TGF-β stimulation_proline inc.” value (shortened to “Mesangial Cell Assay TGF-β % reduction”) (rat mesangial cell line [4]; @ 3 μM) was 15% @ 3 and the “Mesangial Cell Assay TGF-β % reduction” value (rat mesangial cell line [4]; @ 10 μM) was 20-50% @ 10. The “Mesangial Cell Assay TGF-β % reduction” value (rat mesangial cell line [4]; @ 30 μM) was 50-75% @ 30, the “Mesangial Cell Assay TGF-β % reduction” value (rat mesangial cell line [4]; @ 100 μM) was 60-100% @ 100 and the Collagen synthesis (rat mesangial cell line [4]; inhibition ranked against tranilast (T) or FT11) was “>T”. For the same molecule, the “Effect on mesangial cell appearance” value (rat mesangial cell line [5]) was “stress @”.
